Measurements published in US9290476B2, “Methylene linked quinolinyl modulators of RORγt” (Janssen Pharmaceutica NV, priority 2012, dated 2016).
Structures can show the parent of a compound that is named as a salt.

Tests used:
human RORγt LBD = human RORγt LBD (Homo sapiens (Human), UniProt P51449); assay: RORγt reporter assay (GAL4-RORγt LBD luciferase in HEK293T cells); format: cell-based; conditions: for IC50: 24 hours compound treatment; for inhibition at 6 µM: HEK-293T, read-out: RORγt reporter Assay, % inhibition @ 6 μM, HEK293T cells, 6 μM
Sequence of human RORγt LBD (P51449 258-518): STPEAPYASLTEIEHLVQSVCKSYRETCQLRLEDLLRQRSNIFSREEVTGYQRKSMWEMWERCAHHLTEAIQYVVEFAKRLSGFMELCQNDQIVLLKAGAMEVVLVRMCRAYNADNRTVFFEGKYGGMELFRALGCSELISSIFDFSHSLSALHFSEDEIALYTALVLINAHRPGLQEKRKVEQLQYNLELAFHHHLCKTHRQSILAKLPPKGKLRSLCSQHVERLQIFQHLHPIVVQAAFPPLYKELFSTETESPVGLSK
Procedure, shortened: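 HEK293T cells transiently co-transfected with GAL4-DBD–wild-type human RORγt LBD (pBIND) and GAL4-responsive firefly luciferase reporter (pGL4.31); renilla luciferase from pBIND normalises transfection/viability. Cells in phenol-red-free DMEM, 5% lipid-reduced FCS, treated with compound 24 h. Firefly/renilla ratio plotted against compound concentration.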

[1] = system: IL-17 production by CD4 T cells; assay: Human Th17 assay (IL-17 production by CD4 T cells under Th17 differentiation); format: cell-based; conditions: Homo sapiens, CD4+ T, 72 h, human CD4+ T cells, IL-17 after 3 days; read-out: Human Th17 Assay, IC50 μM
Procedure, shortened: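 Healthy-donor peripheral CD4+ T cells (1.5×10^5/well) preincubated 1 h with titrated compound (0.2% DMSO), then differentiated with anti-CD3/CD28 beads, anti-IL4, anti-IFNγ, IL1β, IL23, IL6, TGFβ and IL2 for 3 days at 37 °C. Supernatant IL-17 quantified by MSD electrochemiluminescence against a standard curve; IC50 fitted.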

[2] = molecular target: human RORγt ligand binding domain (RORγt LBD) (Homo sapiens (Human), UniProt P51449); assay: RORγt ThermoFluor assay (thermal shift binding affinity); conditions: estimated from thermal shift
Sequence of human RORγt ligand binding domain (RORγt LBD) (P51449 other isoform, or with tags, fused parts or gaps): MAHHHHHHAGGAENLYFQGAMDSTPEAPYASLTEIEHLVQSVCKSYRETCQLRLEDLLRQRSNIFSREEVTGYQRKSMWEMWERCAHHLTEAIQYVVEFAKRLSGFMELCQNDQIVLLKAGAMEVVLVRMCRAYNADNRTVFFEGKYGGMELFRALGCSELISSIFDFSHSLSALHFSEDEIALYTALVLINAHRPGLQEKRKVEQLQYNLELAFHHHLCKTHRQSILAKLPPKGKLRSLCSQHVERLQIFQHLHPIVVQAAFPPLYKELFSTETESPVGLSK
Procedure, shortened: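 Thermal shift used 0.065 mg/mL RORγt LBD with 60 μM 1,8-ANS in 100 mM Hepes pH 7.0, 10 mM NaCl, 2.5 mM GSH and 0.002% Tween-20, heated at 1 °C/min. Fluorescence was excited at 380–400 nm and emission read at 500 nm.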

Row | Structure (SMILES) | RORγt reporter Assay, % inhibition @ 6 μM (human RORγt LBD; HEK293T cells, 6 μM) [%] | IC50 (human RORγt LBD; HEK293T cells) [µM] | IC50 [1] [µM] | Kd [2] [µM] | inhibition at 6 µM (human RORγt LBD) [%]
1 | COc1ccc(C(O)(c2ccc3nc(OC)c(Cc4ccc(-n5cccn5)cc4)c(Cl)c3c2)c2cncs2)cn1 (centres unmarked) [Example 20A, (3-(4-(1H-Pyrazol-1-yl)benzyl)-4-chloro-2-methoxyquinolin-6-yl)(6-methoxypyridin-3-yl)(thiazol-5-yl)methanol] |  | 0.026 | 0.015 | 0.0038 | 101
2 | OC(c1cccnc1)(c1ccc2nc(Cl)c(Cc3ccc(Cl)cc3)c(Cl)c2c1)c1cncs1 (centres unmarked) [Example 9, (2,4-Dichloro-3-(4-chlorobenzyl)quinolin-6-yl)(pyridin-3-yl)(thiazol-5-yl)methanol.TFA] |  | 0.0065 | 0.085 | 0.00083 | 85
3 | CCN(C)c1nc2ccc(C(O)(c3ccc(Cl)cc3)c3cncn3C)cc2c(Cl)c1Cc1ccc(-n2cccn2)cc1 (centres unmarked) [Example 17, (3-(4-(1H-Pyrazol-1-yl)benzyl)-4-chloro-2-(ethyl(methyl)amino)quinolin-6-yl)(4-chlorophenyl)(1-methyl-1H-imidazol-5-yl)methanol.TFA] |  | 0.38 | 1.2 | 0.31 | 96

Continued, values first:

Row | RORγt reporter Assay, % inhibition @ 6 μM (human RORγt LBD; HEK293T cells, 6 μM) [%] | IC50 (human RORγt LBD; HEK293T cells) [µM] | IC50 [1] [µM] | Kd [2] [µM] | inhibition at 6 µM (human RORγt LBD) [%] | Structure (SMILES)
4 | 99 | 0.012 | 0.0045 | 0.0013 |  | COc1nc2ccc(C(N)(c3ccc(C)nc3C)c3cnnn3C)cc2c(Cl)c1Cc1ccc(C(F)(F)F)cc1 (single isomer, unassigned) [Example 87C, (4-Chloro-2-methoxy-3-(4-(trifluoromethyl)benzyl)quinolin-6-yl)(2,6-dimethylpyridin-3-yl)(1-methyl-1H-1,2,3-triazol-5-yl)methanamine]
5 |  | 0.17 | 0.091 | 1.3 | 95 | CCN(CC)c1nc2ccc(C(O)(c3ccc(C(F)(F)F)nc3)c3cncn3C)cc2c(C#N)c1Cc1ccc(-n2cccn2)cc1 (single isomer, unassigned) [Example 74B, 3-(4-(1H-Pyrazol-1-yl)benzyl)-2-(diethylamino)-6-(hydroxy(1-methyl-1H-imidazol-5-yl)(6-(trifluoromethyl)pyridin-3-yl)methyl)quinoline-4-carbonitrile]
